In patent US9452997B2, “Piperidine and piperazine derivatives as autotaxin inhibitors” (Merck Patent GmbH, priority 2009, dated 2016):

Target: T1, Recombinant autotaxin (Homo sapiens, UniProt Q13822)
T1 construct: made in house; host or cells: Hi5 insect cells (baculovirus)
Experiment: Autotaxin assay (Amplex Red, LPC substrate)
Format: biochemical
Conditions: recombinant autotaxin, LPC substrate, Amplex Red detection; values given as upper bounds
Procedure, shortened: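 Recombinant autotaxin (Hi5 baculovirus, 16 ng) pre-incubated with compound 30 min at 22° C, then reacted with 75 μM egg LPC for 90 min at 37° C. Choline released is coupled to H2O2 and Amplex Red fluorescence (ex 485/em 612 nm). IC50 from ten 1:3 dilutions from 30 μM, duplicates, normalised to 500 μM C14 LPA.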

| Compound | IC50 [µM] |
| --- | --- |
| O=C(Nc1ccc2[nH]nnc2c1)C1CC(=O)N(C2CCN(C(=O)OCc3ccc(Cl)cc3)CC2)C1 (stereo not drawn) [Compound 2, 4-[4-(1H-Benzotriazol-5-ylcarbamoyl)-2-oxo-pyrrolidin-1-yl]-piperidine-1-carboxylic acid 4-chloro-benzyl ester] | < 1 |
| Cc1nc(-c2ccc(C(F)(F)F)cc2)sc1C(=O)N1CCN(C2CCN(C(=O)c3ccc4[nH]nnc4c3)CC2)CC1 [Compound 48, (1H-Benzotriazol-5-yl)-(4-{4-[4-methyl-2-(4-trifluoromethyl-phenyl)-thiazole-5-carbonyl]-piperazin-1-yl}-piperidin-1-yl)-methanone] | < 10 |
| O=C(OCc1ccc(C(F)(F)F)c(Cl)c1)N1CCN(C2CCN(C(=O)c3ccc4[nH]nnc4c3)CC2)CC1 [Compound 96, 4-[1-(1H-Benzotriazole-5-carbonyl)-piperidin-4-yl]-piperazine-1-carboxylic acid 3-chloro-4-trifluoromethyl-benzyl ester] | < 1 |
| O=C(CCc1ccc(C(F)(F)F)cc1)N1CCC(N2CCN(C(=O)c3ccc4[nH]c(=O)oc4c3)CC2)CC1 [Compound 49, 6-(4-{1-[3-(4-Trifluoromethyl-phenyl)-propionyl]-piperidin-4-yl}-piperazine-1-carbonyl)-3H-benzooxazol-2-one] | < 1 |
| O=C(OCc1cc(Cl)cc(C(F)(F)F)c1)N1CCC(N2CCN(C(=O)c3ccc4[nH]nnc4c3)CC2)CC1 [Compound 77, 4-[4-(1H-Benzotriazole-5-carbonyl)-piperazin-1-yl]-piperidine-1-carboxylic acid 3-chloro-5-trifluoromethyl-benzyl ester] | < 1 |
| O=C(CN1CCC(N2CCN(C(=O)c3ccc4[nH]nnc4c3)CC2)CC1)Nc1cc(C(F)(F)F)cc(C(F)(F)F)c1 [Compound 180, 2-{4-[4-(1H-Benzotriazole-5-carbonyl)-piperazin-1-yl]-piperidin-1-yl}-N-(3,5-bis-trifluoromethyl-phenyl)-acetamide] | < 10 |
| O=C(CCc1ccc(C(F)(F)F)c(F)c1)N1CCN(C2CCN(C(=O)c3ccc4[nH]nnc4c3)CC2)CC1 [Compound 105, 1-{4-[1-(1H-Benzotriazole-5-carbonyl)-piperidin-4-yl]-piperazin-1-yl}-3-(3-fluoro-4-trifluoromethyl-phenyl)-propan-1-one] | < 1 |
| O=C(OCc1cccc(C(F)(F)F)c1)N1CCN(C2CCN(C(=O)c3ccc4[nH]nnc4c3)CC2)CC1 [Compound 115, 4-[1-(1H-Benzotriazole-5-carbonyl)-piperidin-4-yl]-piperaizne-1-carboxylic acid 3-trifluoromethyl-benzyl ester] | < 1 |
| O=C(/C=C/c1ccc(Br)cc1F)N1CCC(N2CCN(C(=O)c3ccc4[nH]nnc4c3)CC2)CC1 [Compound 83, (E)-1-{4-[4-(1H-Benzotriazole-5-carbonyl)-piperazin-1-yl]-piperidin-1-yl}-3-(4-bromo-2-fluoro-phenyl)-propenone] | < 1 |
| O=C(CCc1ccc(C(F)(F)F)cc1)N1CCC(C2CCN(C(=O)c3ccc4[nH]nnc4c3)CC2)CC1 [Compound 22, 1-[1′-(1H-Benzotriazole-5-carbonyl)-[4,4′]bipiperidinyl-1-yl]-3-(4-trifluoromethyl-phenyl)-propan-1-one] | < 1 |
| O=C(OCc1ccc(Cl)c(F)c1)N1CCN(C2CCN(C(=O)c3ccc4[nH]nnc4c3)CC2)CC1 [Compound 117, 4-[1-(1H-Benzotriazole-5-carbonyl)-piperidin-4-yl]-piperazine-1-carboxylic acid 4-chloro-3-fluoro-benzyl ester] | < 1 |
| O=C(OCc1ccc(C(F)(F)F)cc1)N1CCC(NC2CCN(C(=O)c3ccc4[nH]nnc4c3)CC2)C1 (stereo not drawn) [Compound 68, 3-[1-(1H-Benzotriazole-5-carbonyl)-piperidin-4-ylamino]-pyrrolidine-1-carboxylic acid 4-trifluoromethyl-benzyl ester] | < 10 |
| O=C(OC1(c2cc(C(F)(F)F)cc(C(F)(F)F)c2)CC1)N1CCN(C2CCN(C(=O)c3ccc4[nH]nnc4c3)CC2)CC1 [Compound 178, 4-[1-(1H-Benzotriazole-5-carbonyl)-piperidin-4-yl]-piperazine-1-carboxylic acid 1-(3,5-bis-trifluoromethyl-phenyl)-cyclopropyl ester] | < 1 |
| O=C(/C=C/c1c[nH]cn1)N1CCN(C2CCN(C(=O)CCc3ccc(C(F)(F)F)cc3)CC2)CC1 [Compound 58, (E)-3-(3H-Imidazol-4-yl)-1-(4-{1-[3-(4-trifluoromethyl-phenyl)-propionyl]-piperidin-4-yl}-piperazin-1-yl)-propenone] | < 10 |
| C[C@H](OC(=O)N1CCN(C2CCN(C(=O)c3ccc4[nH]nnc4c3)CC2)CC1)c1cc(C(F)(F)F)cc(C(F)(F)F)c1 [Compound 171, 4-[1-(1H-Benzotriazole-5-carbonyl)-piperidin-4-yl]-piperazine-1-carboxylic acid (S)-1-(3,5-bis-trifluoromethyl-phenyl)-ethyl ester] | < 10 |
| Cc1ccc(COC(=O)N2CCN(C3CCN(C(=O)c4ccc5[nH]nnc5c4)CC3)CC2)cc1 [Compound 40, 4-[1-(1H-Benzotriazole-5-carbonyl)-piperidin-4-yl]-piperazine-1-carboxylic acid 4-methyl-benzyl ester] | < 10 |
| O=C(OCc1cc(Cl)cc(Cl)c1)N1CCC2(CC1)CCN(C(=O)c1ccc3[nH]nnc3c1)CC2 [Compound 29, 9-(1H-Benzotriazole-5-carbonyl)-3,9-diaza-spiro[5.5]undecane-3-carboxylic acid 3,5-dichloro-benzyl ester] | < 30 |
| O=C(OCc1cn(-c2ccc(Cl)cc2)nn1)N1CCN(C2CCN(C(=O)c3ccc4[nH]nnc4c3)CC2)CC1 [Compound 131, 4-[1-(1H-Benzotriazole-5-carbonyl)-piperidin-4-yl]-piperazine-1-carboxylic acid 1-(4-chloro-phenyl)-1H-[1,2,3]triazol-4-ylmethyl ester] | < 30 |
| CC(OC(=O)N1CCN(C2CCN(C(=O)c3ccc4[nH]nnc4c3)CC2)CC1)c1cc(C(F)(F)F)cc(C(F)(F)F)c1 (stereo not drawn) [Compound 172, 4-[1-(1H-Benzotriazole-5-carbonyl)-piperidin-4-yl]-piperazine-1-carboxylic acid 1-(3,5-bis-trifluoromethyl-phenyl)-ethyl ester] | < 10 |
| Cc1ccc(C(OC(=O)N2CCN(C3CCN(C(=O)c4ccc5[nH]nnc5c4)CC3)CC2)(C(F)(F)F)C(F)(F)F)cc1 [Compound 170, 4-[1-(1H-Benzotriazole-5-carbonyl)-piperidin-4-yl]-piperazine-1-carboxylic acid 2,2,2-trifluoro-1-p-tolyl-1-trifluoromethyl-ethyl ester] | < 10 |
| CSc1ccc(COC(=O)N2CCN(C3CCN(C(=O)c4ccc5[nH]nnc5c4)CC3)CC2)cc1 [Compound 149, 4-[1-(1H-Benzotriazole-5-carbonyl)-piperidin-4-yl]-piperazine-1-carboxylic acid 4-methylsulfanyl-benzyl ester] | < 10 |
| O=C(OCc1ccc(C(F)(F)F)cc1)N1CCN(C2CCN(C(=O)c3ccc4[nH]c(=S)[nH]c4c3)CC2)CC1 [Compound 127, 4-[1-(2-Thioxo-2,3-dihydro-1H-benzoimidazole-5-carbonyl)-piperidin-4-yl]-piperazine-1-carboxylic acid 4-trifluoromethyl-benzyl ester] | < 10 |
| O=C(OCc1cc(F)c(F)c(Cl)c1)N1CCN(C2CCN(C(=O)c3ccc4[nH]nnc4c3)CC2)CC1 [Compound 116, 4-[1-(1H-Benzotriazole-5-carbonyl)-piperidin-4-yl]-piperazine-1-carboxylic acid 3-chloro-4,5-difluoro-benzyl ester] | < 1 |
| O=C(OCc1cc(F)c(F)c(F)c1)N1CCC(N2CCN(C(=O)c3ccc4[nH]nnc4c3)CC2)CC1 [Compound 79, 4-[4-(1H-Benzotriazole-5-carbonyl)-piperazin-1-yl]-piperidine-1-carboxylic acid 3,4,5-trifluoro-benzyl ester] | < 1 |
| O=C(OCc1cc(Cl)c(F)c(Cl)c1)N1CCC(N2CCN(C(=O)c3ccc4[nH]nnc4c3)CC2)CC1 [Compound 93, 4-[4-(1H-Benzotriazole-5-carbonyl)-piperazin-1-yl]-piperidine-1-carboxylic acid 3,5-dichloro-4-fluoro-benzyl ester] | < 1 |
| O=C(OCc1c(F)cc(Br)cc1F)N1CCN(C2CCN(C(=O)c3ccc4[nH]nnc4c3)CC2)CC1 [Compound 157, 4-[1-(1H-Benzotriazole-5-carbonyl)-piperidin-4-yl]-piperazine-1-carboxylic acid 4-bromo-2,6-difluoro-benzyl ester] | < 10 |
| O=C(Nc1ccc2[nH]nnc2c1)c1ccc(N2CCN(C(=O)OCc3ccc(C(F)(F)F)cc3)CC2)nc1 [Compound 111, 4-[5-(1H-Benzotriazol-5-ylcarbamoyl)-pyridin-2-yl]-piperazine-1-carboxylic acid 4-trifluoromethyl-benzyl ester] | < 10 |
| O=C(NCCc1c[nH]cn1)C1CC(=O)N(C2CCN(C(=O)OCc3cc(Cl)cc(Cl)c3)CC2)C1 (stereo not drawn) [Compound 53, 4-{4-[2-(1H-Imidazol-4-yl)-ethylcarbamoyl]-2-oxo-pyrrolidin-1-yl}-piperidine-1-carboxylic acid 3,5-dichloro-benzyl ester] | < 10 |
| O=C(Nc1cc(Cl)cc(Cl)c1)N1CCN(C2CCN(C(=O)c3ccc4[nH]nnc4c3)CC2)CC1 [Compound 31, 4-[1-(1H-Benzotriazole-5-carbonyl)-piperidin-4-yl]-piperazine-1-carboxylic acid (3,5-dichloro-phenyl)-amide] | < 30 |
| Cc1cc(C)cc(COC(=O)N2CCN(C3CCN(C(=O)c4ccc5[nH]nnc5c4)CC3)CC2)c1 [Compound 147, 4-[1-(1H-Benzotriazole-5-carbonyl)-piperidin-4-yl]-piperaizne-1-carboxylic acid 3,5-dimethyl-benzyl ester] | < 1 |
